The conditions of data set [1]: cited from earlier work. An excerpt:
Probing the electrochemical generation and reactivity of N,O-acetals | column: pKa (R–OH)[27,28] || The reactivity of the methanol-derived N,O-acetal 6a was examined using a Friedel–Crafts-type reaction with thiophene in the presence of TFA (2.0 equiv.), which serves to regenerate the N-acyliminium for nucleophilic attack. […] How ...

Data set [2] has as its system A549 cells (ATCC CCL-185). It is filed as cell-based. The conditions noted are these: 72 h. The method, then: (§1) Evaluation of biological activity
(§2) Cell Culture of A549 and HeLa S3 Cells
(§3) 1. A549 cells (ATCC® CCL-185) were cultured at 37 °C with 5% CO2 in DMEM/F12 (Ham)
(§4) medium (Gibco, CAT#11330-032) supplemented with 10% fetal bovine serum (FBS) (Sigma-
(§5) 2. HeLa S3 cells were cultured at 37 °C with 5% CO2 in F-12K nutrient mixture, Kaighn's
(§6) modification medium (Gibco, CAT#21127-022) supplemented with 10% fetal bovine serum
(§7) (FBS) (Sigma-Aldrich, CAT#F9423).
(§8) 3. To subculture cells, media was aspirated and cell monolayers were washed once with dPBS
(§9) (Gibco), and then detached using Trypsin-EDTA (0.25%, Gibco CAT#25200114), followed
(§10) by neutralisation with growth media. Quantitation of cell number was obtained using the Life
(§11) Technologies Countess II automated cell counter.
(§12) MTT 72 Hour Viability Assay
(§13) 1. A549 and HeLa S3 cells were seeded at 600 cells/well in 40 µL into a Corning clear 384-
(§14) well plate (CAT# 3701) using the Biotek EL406, and cultured overnight.
(§15) 2. Cells were then treated with various concentrations of compounds for 72 h. 0.2% DMSO
(§16) and 25 µM Etoposide (Sigma-Aldrich) were used as controls.
(§17) 3. 10 µL of MTT reagent (ThermoFisher, diluted to 2.5 mg/mL in DPBS) was then added to
(§18) cells and incubated at 37 °C for 1.5 h.
4. Plates were then centrifuged at 800 × g for 5 min and the supernatant flicked off. 25 µL of […]
5. Absorbance was then read at 570 nm using the PerkinElmer EnVision Multimode plate […]

For the next data set, the system named is HeLa S3 cells. Kind of data set: MTT 72 hour viability assay, HeLa S3 cells. It counts as cell-based. The method, then: as §1, §2, §3, §4, §5, §6, §7, §8, §9, §10, §11, §12, §13, §14, §15, §16, §17, §18
4. Plates were then centrifuged at 800 × g for 5 min and the supernatant flicked off. 25 µL of
isopropanol/HCl solution was then added to each well using the Biotek EL406 and the plates
5. Absorbance was then read at 570 nm using the PerkinElmer EnVision Multimode plate
6. Statistical Analysis: Results were normalised to the average blank value (media only
control), and then presented as a percentage of the control (0.2% DMSO (vehicle) treated cells)

Setting [3] is: pKa of the alcohol or carboxylic acid R-OH used in the electrolysis.

Read-outs that look alike come from different tables or passages of the source. Non-standard residues stand in square brackets, D forms with d. Residues, ends and D or L forms follow the SMILES beside them. *: point of attachment. NMeF = CN[C@@H](Cc1ccccc1)C(=O)O; NMeV = CN[C@H](C(=O)O)C(C)C; Butyryl = CCCC(=O)*; X1 = CN(Cc1cccs1)*

In the case of `CO` [Me, methanol], the “pKa (R–OH)” value in data set [1] (setting [3]) is 15.5.
For the molecule `O=C(O)C(Cl)(Cl)Cl` [Cl3CCO], the “pKa (R–OH)” value in data set [1] (setting [3]) is given as 0.85.
With `OC(C(F)(F)F)C(F)(F)F` [(CF3)2CH, hexafluoroisopropanol], in data set [1] (setting [3]), the “pKa (R–OH)” value is recorded as 9.3.
With `OCC(F)(F)F` [CF3CH2, trifluoroethanol], the “pKa (R–OH)” value in data set [1] is recorded as 12.5.
Regarding `CCCC(=O)N(C)[C@H](C(=O)N1CCC[C@H]1C(=O)N(C)[C@@H](Cc1ccccc1)C(=O)N[C@@H](CC(C)C)C(=O)N[C@H](C(=O)N(C)Cc1cccs1)C(C)C)C(C)C` [Compound 21] (Butyryl-[NMeV]P[NMeF]LV-X1), the IC50 worked out at 27.4 µM in data set [2] and 18.4 µM with HeLa S3 cells (72 h). For the same molecule, in the data set with HeLa S3 cells (comparative HeLa cell viability assays, Fig. 1A, MTT, 72 h), the “cytotoxicity compared with natural products 1a-1c” value is reported as “enhanced cytotoxicity in relation to the natural products”.
For `C=CCCN(C)C(=O)[C@@H](NC(=O)[C@H](CC(C)C)NC(=O)[C@H](Cc1ccccc1)NC(C)=O)C(C)C` [Compound 19], the values for the concentration for half-maximal inhibition (IC50) (in data set [2]; with HeLa S3 cells (72 h)) were 7.9 µM and 9.2 µM, respectively. In addition, the “cytotoxicity compared with natural products 1a-1c” value in the data set with HeLa S3 cells was “enhanced cytotoxicity in relation to the natural products”.

By IC50 is commonly meant the concentration needed to halve the response being measured. Low readings indicate greater potency, high ones weaker potency.

These data come from publication PMC8162360, “Total synthesis of biseokeaniamides A–C and late-stage electrochemically-enabled peptide analogue synthesis” (Chemical Science, 2020).
